The experiment addresses T1, LeuT (Leucine Transporter) (Aquifex aeolicus, UniProt O67854, K398C).
T1 construct: gene snf; LeuT K398C labelled with BTFA, in DDM micelles
In words: 1D […]-NMR, […] L-ala with […] Na+ (shift to outward-facing closed state). It is filed as binding.

The record followed here is paper PMC11649037, “Monitoring conformational changes in the human neurotransmitter transporter homologue LeuT with ^19F‐NMR spectroscopy” (Journal of Neurochemistry, 2024).

As for `C[C@H](N)C(=O)O` [Alanine], the “1D 19F-NMR, 4 mM L-ala with 200 mM Na+ (shift to outward-facing closed state)” value was “Alanine/Na^+ K398C‐BTFA LeuT (Figure 2e) and Phenylalanine/Na^+ K398C‐BTFA LeuT (Figure 2f) which show a similar shift toward S1 resonance”.
